The values that follow come from patent publication US20060063759A1, “Tricyclic steroid hormone nuclear receptor modulators” (priority 2002, published 2006).

One assay concerns the target T1, human MR (Homo sapiens, UniProt P08235).
T1 construct: The full length human MR gene is cloned from a human kidney or human brain cDNA library; His tag from the pAcHLT vector (own knowledge); made in house; host or cells: Sf9 insect cells (baculovirus, pAcHLT transfer vector)
T1 sequence (P08235 1-984): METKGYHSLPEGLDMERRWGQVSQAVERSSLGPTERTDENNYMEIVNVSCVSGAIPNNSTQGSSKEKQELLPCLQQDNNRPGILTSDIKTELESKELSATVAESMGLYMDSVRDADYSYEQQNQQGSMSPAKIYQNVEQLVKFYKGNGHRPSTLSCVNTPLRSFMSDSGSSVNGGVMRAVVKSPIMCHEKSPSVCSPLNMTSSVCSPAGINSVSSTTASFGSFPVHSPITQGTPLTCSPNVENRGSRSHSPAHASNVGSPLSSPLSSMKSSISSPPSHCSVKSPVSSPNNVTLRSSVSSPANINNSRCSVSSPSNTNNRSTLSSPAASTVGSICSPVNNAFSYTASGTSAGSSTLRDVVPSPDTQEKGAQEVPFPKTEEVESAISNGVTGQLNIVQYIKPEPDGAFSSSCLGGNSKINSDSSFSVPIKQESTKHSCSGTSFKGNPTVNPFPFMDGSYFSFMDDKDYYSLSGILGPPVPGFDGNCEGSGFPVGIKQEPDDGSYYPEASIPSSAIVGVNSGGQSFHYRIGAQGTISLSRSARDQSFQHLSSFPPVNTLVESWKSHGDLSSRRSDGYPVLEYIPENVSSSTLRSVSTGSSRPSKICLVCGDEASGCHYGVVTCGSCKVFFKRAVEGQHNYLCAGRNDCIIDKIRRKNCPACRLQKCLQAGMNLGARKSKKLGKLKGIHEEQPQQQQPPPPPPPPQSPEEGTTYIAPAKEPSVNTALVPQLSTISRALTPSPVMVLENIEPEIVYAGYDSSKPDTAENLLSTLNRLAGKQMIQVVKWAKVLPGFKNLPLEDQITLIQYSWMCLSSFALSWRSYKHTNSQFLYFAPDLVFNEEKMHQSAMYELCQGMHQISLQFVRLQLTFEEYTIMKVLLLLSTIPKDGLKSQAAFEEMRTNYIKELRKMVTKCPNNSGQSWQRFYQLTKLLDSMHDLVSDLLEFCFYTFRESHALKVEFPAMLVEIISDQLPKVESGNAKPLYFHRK
Nature of the assay: Mineralocorticoid Receptor Binding Assay ([3H]-aldosterone). As to conditions: [3H]-aldosterone binding, human MR expressed in Sf9 cells; read-out: MR Ki. In outline:
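Lysate supernatant of Sf9 cells expressing full-length human MR (20-25 μg protein) was incubated with 0.5 nM [3H]-aldosterone and test compound in molybdate/Tris/phosphate/glycerol buffer, pH 7.5, ~16 h at 4 °C. Bound ligand was filtered and counted by scintillation; IC50 is the concentration halving [3H]-aldosterone binding.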

Another assay addresses T2, glucocorticoid receptor (Homo sapiens, UniProt P04150).
T2 construct: containing 50-200 ug of A549 cell extract and 1.86 nM [^3H]-dexamethasone; host or cells: A549 human lung epithelial cells (sonicated cell extract)
T2 sequence (P04150 1-777): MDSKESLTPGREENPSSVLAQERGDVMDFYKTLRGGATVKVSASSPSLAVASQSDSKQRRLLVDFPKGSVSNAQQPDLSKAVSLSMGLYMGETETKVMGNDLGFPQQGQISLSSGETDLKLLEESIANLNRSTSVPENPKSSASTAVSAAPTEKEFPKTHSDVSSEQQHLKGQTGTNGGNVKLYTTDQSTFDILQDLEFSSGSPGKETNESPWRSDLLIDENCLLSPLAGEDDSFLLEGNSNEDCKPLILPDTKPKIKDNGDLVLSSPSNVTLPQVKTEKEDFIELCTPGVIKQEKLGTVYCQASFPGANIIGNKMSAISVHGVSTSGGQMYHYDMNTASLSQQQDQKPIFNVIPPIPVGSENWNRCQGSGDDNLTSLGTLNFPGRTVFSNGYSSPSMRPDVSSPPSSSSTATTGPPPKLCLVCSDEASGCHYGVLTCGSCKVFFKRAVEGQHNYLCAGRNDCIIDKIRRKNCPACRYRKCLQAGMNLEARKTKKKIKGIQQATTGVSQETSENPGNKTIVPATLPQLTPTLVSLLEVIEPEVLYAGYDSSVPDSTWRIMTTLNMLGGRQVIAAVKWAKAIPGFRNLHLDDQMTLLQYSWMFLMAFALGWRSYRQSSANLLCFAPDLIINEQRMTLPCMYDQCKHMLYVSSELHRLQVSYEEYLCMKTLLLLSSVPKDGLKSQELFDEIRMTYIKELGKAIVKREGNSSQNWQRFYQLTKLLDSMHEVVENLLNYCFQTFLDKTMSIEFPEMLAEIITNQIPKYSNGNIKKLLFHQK
Nature of the assay: Glucocorticoid Receptor Binding Assay ([3H]-dexamethasone, A549 cell extract). As to conditions: [3H]-dexamethasone binding, read-out: GR Ki. In outline: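 A549 cell extract (50–200 ug) incubated with 1.86 nM [3H]-dexamethasone and test compound for 16 h at 4 °C in Tris-HCl pH 7.2 buffer with glycerol and molybdate. Unbound radioligand removed by dextran-coated charcoal, then supernatant bound counts measured by scintillation.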

On to `COc1ccc2c(c1)SCc1ccccc1/C2=C\c1cccc(NS(C)(=O)=O)c1` [Example 694], for which the inhibition constant (Ki) at human MR and on glucocorticoid receptor was less than 500 nM in each case.

On to `C(=C1c2ccccc2CCc2ccccc21)c1ccccc1-c1ccccn1` [Example 227, 2-[2-(10,11-Dihydro-dibenzo[a,d]cyclohepten-5-ylidenemethyl)-phenyl]-pyridine], for which the Ki on human MR is less than 500 nM; at glucocorticoid receptor it was less than 1000 nM.

For the molecule `CS(=O)(=O)Nc1cc(F)cc(/C=C2/c3ccc(F)cc3CCc3nc(CF)ccc32)c1` [Example 598], the inhibition constant Ki at human MR and at glucocorticoid receptor was less than 500 nM in each case.

`CS(=O)(=O)Nc1cccc(/C=C2\c3ccc(Cl)cc3CCc3sccc32)c1` [Example 496]: the Ki on human MR and on glucocorticoid receptor was less than 500 nM each time.

On to `COc1ccc2c(c1)/C(=C/c1cccc(NS(C)(=O)=O)c1)c1ccccc1CO2` [Example 679], for which the inhibition constant (Ki) on human MR and at glucocorticoid receptor was less than 500 nM in each case.

Take `COc1ccc2c(c1)COc1cc(F)ccc1/C2=C\c1cccc(NS(C)(=O)=O)c1` [Example 735]: the Ki on human MR and on glucocorticoid receptor was less than 500 nM throughout.

For the molecule `CS(=O)(=O)Nc1cccc(/C=C2/c3ccc(F)cc3CCc3nc(C(F)(F)F)ccc32)c1` [Example 521], the Ki at human MR and at glucocorticoid receptor was less than 500 nM in each case.

As for `COc1ccc(OC)c(C=C2c3ccccc3CCc3ccccc32)c1` [Example 52, 5-(2,5-Dimethoxy-benzylidene)-10,11-dihydro-5H-dibenzo[a,d]cycloheptene], the inhibition constant Ki on human MR was less than 500 nM; at glucocorticoid receptor, less than 10000 nM.

In the case of `Nc1nc2ccc(C=C3c4ccccc4CCc4ccccc43)cc2s1` [Example 442], the inhibition constant Ki at human MR and on glucocorticoid receptor was less than 500 nM each time.

In the case of `CSc1ccc2c(c1)CCc1ccccc1/C2=C/c1cccc(NS(C)(=O)=O)c1` [Example 389], the inhibition constant (Ki) on human MR and on glucocorticoid receptor was less than 500 nM in each case.

With `Oc1cccc(/C=C2\c3ccccc3CCc3c(O)cccc32)c1` [Example 376], the Ki at human MR and at glucocorticoid receptor was less than 500 nM in each case.

For `O=c1[nH]c2ccc(C=C3c4ccc(F)cc4COc4cc(F)ccc43)cc2[nH]1` [Example 644], the figures for the Ki on human MR and on glucocorticoid receptor were less than 500 nM and less than 1000 nM, respectively.

On to `CCS(=O)(=O)Nc1cccc(C=C2c3ccccc3CCc3c(Cl)cccc32)c1` [Example 208(b), Ethanesulfonic acid [3-(1-chloro-10,11-dihydro-dibenzo[a,d]cyclohepten-5-ylidenemethyl)-phenyl]-amide], for which the inhibition constant (Ki) on human MR and on glucocorticoid receptor was less than 500 nM throughout.

Turning to `COc1cc2c(cc1OC)C(=Cc1cccc(NS(C)(=O)=O)c1)c1ccccc1CC2` [Example 170(a), N-[3-(2,3-Dimethoxy-10,11-dihydro-dibenzo[a,d]cyclohepten-5-ylidenemethyl)-phenyl]-methanesulfonamide], the inhibition constant (Ki) at human MR was less than 500 nM; at glucocorticoid receptor, less than 1000 nM.

Turning to `CS(=O)(=O)Nc1cccc(/C=C2/c3ccccc3CCc3scnc32)c1` [484(b), N-[3-(9,10-Dihydro-1-thia-3-aza-benzo[f]azulen-4-ylidenemethyl)-phenyl]-methanesulfonamide], the inhibition constant Ki at human MR and on glucocorticoid receptor was less than 500 nM each time.

Regarding `CS(=O)(=O)Nc1cccc(/C=C2\c3ccccc3CCc3sccc32)c1` [Example 475], the Ki was less than 500 nM on human MR and less than 10000 nM at glucocorticoid receptor.

For `Cc1ccc2c(c1)CSc1ccccc1/C2=C/c1cccc(NS(C)(=O)=O)c1` [Example 744], the Ki at human MR and on glucocorticoid receptor was less than 500 nM in each case.

For `CS(=O)(=O)Nc1cccc(/C=C2\c3ccccc3C[S+]([O-])c3ccccc32)c1` (centres unmarked) [Example 263, N-[3-(10-Oxo-10,11-dihydro-10λ^4-thia-dibenzo[a,d]cyclohepten-5-ylidenemethyl)-phenyl]-methanesulfonamide], the inhibition constant (Ki) was less than 500 nM at human MR and less than 1000 nM on glucocorticoid receptor.

For the molecule `CS(=O)(=O)Nc1cccc(C=C2c3ccccc3CCc3c(F)cccc32)c1` [184(a), N-[3-(1-Fluoro-10,11-dihydro-dibenzo[a,d]cyclohepten-5-ylidenemethyl)-phenyl]-methanesulfonamide], the inhibition constant (Ki) on human MR and at glucocorticoid receptor was less than 500 nM throughout.

Consider `CS(=O)(=O)Nc1cccc(C=C2c3ccc(O)cc3CCc3cc(O)ccc32)c1` [Example 192, N-[3-(2,8-Dihydroxy-10,11-dihydro-dibenzo[a,d]cyclohepten-5-ylidenemethyl)-phenyl]-methanesulfonamide], for which the Ki at human MR and on glucocorticoid receptor was less than 500 nM throughout.

Regarding `O=c1[nH]c2cc(C=C3c4ccccc4CCc4ccccc43)ccc2o1` [Example 216, 5-(10,11-Dihydro-dibenzo[a,d]cyclohepten-5-ylidenemethyl)-3H-benzooxazol-2-one], the inhibitory constant (Ki) on human MR and at glucocorticoid receptor was less than 500 nM each time.

As to `CS(=O)(=O)Nc1cc(F)cc(/C=C2\c3ccc(F)cc3CCc3nc(C(F)F)ccc32)c1` [Example 595], the inhibitory constant (Ki) at human MR and on glucocorticoid receptor was less than 500 nM throughout.

In the case of `CS(=O)(=O)Nc1cccc(/C=C2\c3ccc(Cl)cc3CCc3ncsc32)c1` [Example 553], the inhibition constant (Ki) at human MR and at glucocorticoid receptor was less than 500 nM each time.

Regarding `N#Cc1cccc2c1CCc1ccccc1/C2=C\c1cccc(O)c1` [Example 364], the inhibition constant (Ki) at human MR and at glucocorticoid receptor was less than 500 nM throughout.

For `Oc1cccc(C=C2c3ccccc3CCc3cc(F)ccc32)c1` [200(a), 3-(2-Fluoro-10,11-dihydro-dibenzo[a,d]cyclohepten-5-ylidenemethyl)-phenol], the Ki on human MR and on glucocorticoid receptor was less than 500 nM throughout.

For the molecule `CS(=O)(=O)Nc1cccc(C=C2c3ccccc3CCc3cc(O)ccc32)c1` (mixture of isomers) [Example 162, N-[3-(2-Hydroxy-10,11-dihydro-dibenzo[a,d]cyclohepten-5-ylidenemethyl)-phenyl]-methanesulfonamide], the inhibitory constant (Ki) on human MR and at glucocorticoid receptor was less than 500 nM throughout.

As for `Cc1ccc2c(c1)CCc1ccccc1C2=Cc1cccc(NS(C)(=O)=O)c1` [Example 302], the Ki on human MR and at glucocorticoid receptor was less than 500 nM each time.

For the molecule `Oc1cccc(/C=C2/c3ccccc3COc3cc(F)ccc32)c1` [Example 627], the Ki at human MR and at glucocorticoid receptor was less than 500 nM each time.

Consider `CS(=O)(=O)Nc1cccc(/C=C2\c3ccccc3CCc3cc(F)ccc32)c1` [Example 355], for which the inhibition constant (Ki) at human MR and at glucocorticoid receptor was less than 500 nM in each case.

As for `CS(=O)(=O)Nc1csc(C=C2c3ccccc3CCc3ccccc32)n1` [Example 446], the Ki at human MR and at glucocorticoid receptor was less than 500 nM throughout.

As to `Clc1ccc(C=C2c3ccccc3CCc3sccc32)c(Cl)c1` [Example 490], the Ki at human MR was less than 1000 nM; at glucocorticoid receptor it was less than 10000 nM.

In general, Ki refers to a measure of affinity in units of concentration, obtained from inhibition or displacement.
